# Patent US11241434B2, “Compositions and methods for improving cognition in a subject” (Yale University, priority 2013, dated 2022)
# Tests used:
# [1] = Saracatinib drug levels in mouse brain, plasma and CSF (LC/MS/MS); type: in vivo; details: 5 mg/kg/d; for peak CSF level / trough CSF level: one pooled sample
# Method: Data are mean±sem for separate mice for all points except CSF where samples pooled.
# In an initial cohort after 6 doses, samples were collected 30-60 minutes after dosing to obtain a peak level (FIG. 6). Drug levels were measured with an LC/MS/MS method validated for clinical samples.
# [2] = tested on: Fyn (phospho-Src pY416); assay: pY416 and Fyn immunoblot of hippocampus of WT mice fed AZD0530 diet; type: in vivo, mouse; details: diet pellets 5 mg/kg/d, 9 months, vs Vehicle
# Text: FIGS. 17A-17C illustrate reduced Fyn activation in mice fed AZD0530-containing food. FIG. 17A: Representative blots using anti-pY416, Fyn, and 8-actin antibodies of the RIPA-soluble fraction of the hippocampus of WT mice treated with Vehicle or AZD0530 for 9 months. FIG. 17B: Quantification of pY416-immunoreactive bands from the immunoblot from FIG. 17A by densitometric analysis. The bands indicated by an arrow in FIG. 17A were quantified. The band intensity was normalized to that of 8-actin and then normalized to the mean of the Vehicle-treated WT group. Data are represented as mean±SEM. n=6/group. *p<0.05; t-test. FIG. 17C: Quantification of Fyn-immunoreactive bands from the immunoblot in FIG. 17A by densitometric analysis. The band intensity was normalized to that of β-actin and then normalized to the mean of the Vehicle-treated WT group. Data are represented as mean±SEM. n=6/group. t-test.
# To generate chow containing chow for chronic dosing, the compound was incorporated into purified diet pellets by Research Diets, Inc. by dissolving the compound in a solution of 0.5% w/v Hydroxypropylmethylcellulose/0.1% w/v polysorbate 80 at 1.429 mg/ml. […] The dosage of the drug in the food was calculated to take into account the average amount of food eaten by a mouse in a single day per kg of weight and adjusted to be equivalent to ingesting 5 mg/kg per day. […]
structure (smiles),measurement,setting,value
"CN1CCN(CCOc2cc(OC3CCOCC3)c3c(Nc4c(Cl)ccc5c4OCO5)ncnc3c2)CC1 [saracatinib, N-(5-chloro-benzo[d][1,3]dioxol-4-yl)-7-(2-(4-methylpiperazin-1-yl)ethoxy)-5-(tetrahydro-2H-pyran-4-yloxy)quinazolin-4-amine]",peak brain level,[1],50 nM
same,trough brain level,[1]; 5 mg/kg/day,19 to 46 nM
same,peak brain level,[1]; as free base,27 ng/g
same,peak CSF level,[1],13 nM
same,trough CSF level,[1],8.9 nM
same,peak CSF level,[1]; as free base,7 ng/mL
same,trough CSF level,[1]; as free base,4.6 ng/mL
same,total Fyn levels in hippocampus,[2],no difference
